Key:
HCT-116 [1] = assay: Induction of apoptosis in human HCT116 cells assessed as caspase activation by HTS assay; format: functional, cell-based
SNU-398 [2] = assay: Induction of apoptosis in human SNU398 cells assessed as caspase activation by HTS assay; format: functional, cell-based
T47D [3] = assay: Induction of apoptosis in human T47D cells assessed as caspase activation by HTS assay; format: functional, cell-based
HCT-116 [4] = assay: Cell cycle arrest in human HCT116 cells assessed as increase in subG1 phase population at 100 nM after 24 hrs by flow cytometry; format: functional
HCT-116 [5] = assay: Cell cycle arrest in human HCT116 cells assessed as increase in subG1 phase population at 100 nM after 48 hrs by flow cytometry; format: functional
HCT-116 [6] = assay: Cell cycle arrest in human HCT116 cells assessed as increase in G2/M phase population at 100 nM after 24 hrs by flow cytometry; format: functional
T47D [7] = assay: Cytotoxicity against human T47D cells; format: functional
HCT-116 [8] = assay: Cytotoxicity against human HCT116 cells; format: functional
SNU-398 [9] = assay: Cytotoxicity against human SNU398 cells; format: functional

| EC50 (HCT-116 [1]) [nM] | EC50 (SNU-398 [2]) [nM] | EC50 (T47D [3]) [nM] | SMILES | Activity (HCT-116 [4]) [%] | Activity (HCT-116 [5]) [%] | Activity (HCT-116 [6]) [%] | GI50 (T47D [7]) [nM] | GI50 (HCT-116 [8]) [nM] | GI50 (SNU-398 [9]) [nM] |
| --- | --- | --- | --- | --- | --- | --- | --- | --- | --- |
| 650 | 560 | 470 | COc1ccc(C(=O)c2ccc(N(C)C)c3ccccc23)cc1OC |  |  |  |  |  |  |
| > 10000 | > 10000 | > 10000 | COc1ccc(C(=O)c2ccc([N+](=O)[O-])cc2)c2ccccc12 |  |  |  |  |  |  |
| 620 | 760 | 590 | COc1ccc(C(OC)c2ccc(N(C)C)c3ccccc23)cc1 (stereo not given) |  |  |  |  |  |  |
| 260 | 170 | 140 | COc1ccc(C(O)c2ccc(N(C)C)c3ccccc23)cc1 (stereo not given) |  |  |  | 230 | 490 | 170 |
| 1200 | 570 | 420 | COc1cc(C(=O)c2ccc(N(C)C)c3ccccc23)cc(OC)c1OC |  |  |  |  |  |  |
| 610 | 720 | 510 | COc1ccc(N(C)c2ccc(N(C)C)c3ccccc23)cc1 |  |  |  | 260 | 320 | 150 |
| 490 | 520 | 380 | CN(C)c1ccc(C(O)c2ccc(N(C)C)c3ccccc23)cc1 (stereo not given) |  |  |  |  |  |  |
| 86 | 74 | 72 | COc1ccc(C(=O)c2ccc(N(C)C)c3ccccc23)cc1 |  |  |  | 39 | 100 | 27 |

The remaining lines, values behind:

| SMILES | EC50 (HCT-116 [1]) [nM] | EC50 (SNU-398 [2]) [nM] | EC50 (T47D [3]) [nM] | Activity (HCT-116 [4]) [%] | Activity (HCT-116 [5]) [%] | Activity (HCT-116 [6]) [%] | GI50 (T47D [7]) [nM] | GI50 (HCT-116 [8]) [nM] | GI50 (SNU-398 [9]) [nM] |
| --- | --- | --- | --- | --- | --- | --- | --- | --- | --- |
| CN(C)c1ccc(C(=O)c2ccc(N(C)C)c3ccccc23)cc1 | 49 | 44 | 37 | 4 | 53 | 12 | 34 | 68 | 27 |
| COc1ccc(N(C)c2ccc(N)c3ccccc23)cc1 | 11000 | 5300 | 12000 |  |  |  |  |  |  |
| COc1cccc(N(C)c2ccc(N(C)C)c3ccccc23)c1 | 4600 | 4700 | 4400 |  |  |  |  |  |  |
| COc1ccc(C(=O)c2ccc(N(C)C)cc2)c2ccccc12 | 1200 | 980 | 810 |  |  |  |  |  |  |
| COc1cccc(C(=O)c2ccc(N(C)C)c3ccccc23)c1 | 5100 | 3500 | 2600 |  |  |  |  |  |  |
| COc1ccc(N(C)c2ccc([N+](=O)[O-])c3ccccc23)cc1 | 280 | 330 | 240 |  |  |  |  |  |  |
| COc1cc(OC)cc(C(=O)c2ccc(N(C)C)c3ccccc23)c1 | 1900 | 1500 | 1300 |  |  |  |  |  |  |
